Experiments:
[1] = system: H1975 (TKI-resistant) human lung adenocarcinoma xenograft tumors; assay: H1975 NSCLC xenograft tumor model in female Rag2 mice
Procedure: Rag2 mice bearing subcutaneous human lung adenocarcinoma xenograft tumors of either TKI-resistant (H1975) or TKI-sensitive (A549) origin were treated.
Two human NSCLC cell lines, A549 (TKI-sensitive) and H1975 (TKI-resistant), were used as xenograft tumor models in female Rag2 mice. The mice were 6 to 8 weeks of age and weighed 18-23 grams. 10 mice were used per group.
Rag2 mice bearing subcutaneous human lung adenocarcinoma xenograft tumors of either TKI-sensitive (A549) or TKI-resistant (H1975) origin were treated. […] Saline was used as control treatment. Disease progression was evaluated by tumor volume, clinical observations and body weight measurements. Blood samples were analyzed for CBC/differential analyses to assess myelosuppression or other changes in blood chemistry.
Cell number for inoculation was 5×10^6 cells for A549 cells in an injection volume of 50 μL per animal. For H1975 cells, cell number for inoculation was 2×10^6 cells in an injection volume of 50 μL per animal.
Treatment was initiated at average tumor volume of 100-150 mm^3.
Tumor growth delay (TGD) was calculated according to Equation (2): TGD=DTtx−DTcontrol (2).
For these calculations, TV is tumor volume, tx is treatment, int is initial, DT is doubling time for mean tumor volume from 200 mm^3 to 400 mm^3 for A549 or from 300 mm^3 to 600 mm^3 for H1975. MTV is mean tumor volume in mm^3 and TCR is tumor control ratio.
Disease progression was evaluated by tumor volume, clinical observations and body weight measurements.

RIF-1 cell-line = assay: Standard syngeneic mouse fibrosarcoma model, tumor growth delay; format: in vivo; details: 10 mg/kg, single IP injection, RIF-1 in C3H mice; for Tumor Delay: vs untreated
2780-CP = assay: 5-day MTT cytotoxicity, wild-type p53 ovarian tumor panel; format: cell-based, human; details: wt-p53, cisplatin-resistant, N = 3, read-out: DAG IC50 (μM) Mean
Source text: (§1) The ovarian tumor panel lines are as follows: • is A2780; ▪ is 2780-CP16; ▴ is OVCAR-10; ▾ is HEY; and ♦ is OVCA-433. Dose-response curves were undertaken using a 5-day MTT assay to determine cell viability. The A2780 represents a cisplatin-sensitive model, whereas the other four cell lines are cisplatin-resistant. The cell line 2780-CP16 was derived for cisplatin resistance from A2780. The properties of some of these cell lines are disclosed in G. S. Hagopian et al., “Expression of p53 in Cisplatin-Resistant Ovarian Cell Lines: Modulation with the Novel Platinum Analog (1R,2R-Diaminocyclohexane)(trans-diacetato)(dichloro)-platinum(IV),” Clin. Cancer Res. 5: 655-663 (1999), and in Z. H. Siddik et al., “Independent Pathways of p53 Induction by Cisplatin and X-Rays in a Cisplatin-Resistant Cell Line,” Cancer Res. 58: 698-703 (1998), both incorporated herein by this reference.
(§2) The data of FIG. 7 are shown in Table 8 in terms of the IC50 of dianhdrogalactitol in the wild-type p53 human ovarian tumor panel.

A2780 = assay: as above; format: cell-based, human; details: A2780, wt-p53, cisplatin-sensitive, N = 3, read-out: DAG IC50 (μM) Mean
Source text: as §1, §2

Hey = assay: as above; format: cell-based, human; details: wt-p53, cisplatin-resistant, N = 3, read-out: DAG IC50 (μM) Mean
Source text: as §1, §2

OVCA-433 = assay: as above; format: cell-based, human; details: OVCA-433, wt-p53, cisplatin-resistant, N = 3, read-out: DAG IC50 (μM) Mean
Source text: as §1, §2

Ovcar-10 = assay: as above; format: cell-based, human; details: Ovcar-10, wt-p53, cisplatin-resistant, N = 3, read-out: DAG IC50 (μM) Mean
Source text: as §1, §2

[2] = system: NSCLC cell lines other than H460; assay: Cytotoxicity in NSCLC tumor models, range over the cell lines other than H460; format: cell-based, human; details: NSCLC cell lines other than H460, single agents
[3] = 4 mg/kg i.p., stopped after 6 doses

**Q.** dianhydrogalactitol was tested. Which “MTV at Day 31” value ([1]; 2 mg/kg i.p. M, W, F × 3) did it give?
**A.** 396 mm^3

**Q.** And the “Median survival” value ([1]; 2 mg/kg i.p. M, W, F × 3)?
**A.** 31 days

**Q.** What about the “TCR at Day 31” value ([1]; 2 mg/kg i.p. M, W, F × 3, tumor control ratio) of the same substance?
**A.** 0.87

**Q.** What about the “MTV at Day 31” value ([1]; 3 mg/kg i.p. M, W, F × 3) of the same substance?
**A.** 383 mm^3

**Q.** And the “Median survival” value ([1]; 3 mg/kg i.p. M, W, F × 3)?
**A.** 31 days

**Q.** And the “TCR at Day 31” value ([1]; 3 mg/kg i.p. M, W, F × 3, tumor control ratio)?
**A.** 0.84

**Q.** And the body weight ([1]; 4 mg/kg i.p. (group 5), treatment stopped after 6 doses, mice then quickly recovered)?
**A.** significant body weight loss

**Q.** And the “MTV at Day 31” value [1, 3]?
**A.** 262 mm^3

**Q.** And the “Median survival” value [1, 3]?
**A.** 41 days

**Q.** What about the “TCR at Day 31” value ([1]; 4 mg/kg i.p., stopped after 6 doses, tumor control ratio) of the same substance?
**A.** 0.57

**Q.** What about the “Days to 4 × Median Tumor Size” value (RIF-1 cell-line) of the same substance?
**A.** 11.45 days

**Q.** What about the “Tumor Delay” value (RIF-1 cell-line) of the same substance?
**A.** 5.16 days

**Q.** And the “Tumor Delay” value (RIF-1 cell-line; listed as dianhydrogalactitol)?
**A.** 5.6 days

**Q.** And the IC50 (2780-CP)?
**A.** 2.2 µM

**Q.** And the IC50 (A2780)?
**A.** 0.54 µM

**Q.** And the IC50 (Hey)?
**A.** 2.1 µM

**Q.** And the IC50 (OVCA-433)?
**A.** 2.3 µM

**Q.** What about the IC50 (Ovcar-10) of the same substance?
**A.** 3.6 µM

**Q.** And the IC50 [2]?
**A.** 900 to 6100 nM
